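Assay format: 96-well plates, 48-hour exposure. The concentration for 50% growth inhibition is given as GI50.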 Activity calls are given as the source filed them. Rule as the data show it: active = GI50 up to about 1.1 µM and inactive = higher.
What was measured:
Experiment in all cases: inhibition of tumour cell growth, NCI panel, 48 h
SNB-75 = tested on: SNB-75
OVCAR-5 = tested on: OVCAR-5
786-0 = tested on: 786-0
SR = tested on: SR
UACC-62 = tested on: UACC-62
BT-549 = tested on: BT-549
SF-539 = tested on: SF-539
EKVX = tested on: EKVX
SF-268 = tested on: SF-268
MOLT-4 = tested on: MOLT-4
U-251 = tested on: U-251
MCF7 = tested on: MCF7
SK-MEL-2 = tested on: SK-MEL-2
SF-295 = tested on: SF-295
K562 = tested on: K562
NCI/ADR-RES = tested on: NCI/ADR-RES
SK-OV-3 = tested on: SK-OV-3
SW-620 = tested on: SW-620
HL-60 = tested on: HL-60
SN12C = tested on: SN12C

SMILES	GI50 (SNB-75)	GI50 (OVCAR-5)	GI50 (786-0)	GI50 (SR)	GI50 (UACC-62)	GI50 (BT-549)	GI50 (SF-539)	GI50 (EKVX)	GI50 (SF-268)	GI50 (MOLT-4)	GI50 (U-251)	GI50 (MCF7)	GI50 (SK-MEL-2)	GI50 (SF-295)	GI50 (K562)	GI50 (NCI/ADR-RES)	GI50 (SK-OV-3)	GI50 (SW-620)	GI50 (HL-60)	GI50 (SN12C)
CCON=C1C(C)(C)C(C)(C)C(C)(C)C1(C)C	> 100 µM (inactive)	> 100 µM (inactive)	> 100 µM (inactive)	> 100 µM (inactive)	> 100 µM (inactive)	> 100 µM (inactive)	> 100 µM (inactive)	> 100 µM (inactive)	> 100 µM (inactive)	> 100 µM (inactive)	> 100 µM (inactive)	> 100 µM (inactive)	> 100 µM (inactive)	> 100 µM (inactive)	> 100 µM (inactive)	> 100 µM (inactive)	> 100 µM (inactive)	> 100 µM (inactive)	> 100 µM (inactive)	> 100 µM (inactive)
CCN(CC)CC(O)CNc1ccc(NCC2CO2)c2c1C(=O)c1ccccc1C2=O (stereo not drawn)	1.6 µM (inactive)	2.3 µM (inactive)	0.186 µM (active)	0.055 µM (active)	0.56 µM (active)	0.194 µM (active)	1.32 µM (inactive)	1.74 µM (inactive)	0.0619 µM (active)	–	1.24 µM (inactive)	0.0109 µM (active)	0.226 µM (active)	1.05 µM (active)	0.0479 µM (active)	0.0993 µM (active)	1.86 µM (inactive)	0.0327 µM (active)	0.0236 µM (active)	0.139 µM (active)
Cc1nc(SCC(=O)Nc2ccc(Cl)cc2)c2sc(=S)n(-c3ccccc3)c2n1	> 10 µM (inactive)	> 10 µM (inactive)	> 10 µM (inactive)	6.28 µM (inactive)	> 10 µM (inactive)	> 10 µM (inactive)	> 10 µM (inactive)	> 10 µM (inactive)	> 10 µM (inactive)	> 10 µM (inactive)	> 10 µM (inactive)	> 10 µM (inactive)	> 10 µM (inactive)	> 10 µM (inactive)	6.41 µM (inactive)	> 10 µM (inactive)	> 10 µM (inactive)	> 10 µM (inactive)	> 10 µM (inactive)	> 10 µM (inactive)
COC(=O)C(CCCCN)NC(=O)C(CCCCN)NC(=O)C(CCCCN)NC(C)=O.Cc1ccc(C(=O)Nc2ccc(S(=O)(=O)O)c3cc(S(=O)(=O)O)cc(S(=O)(=O)O)c23)cc1NC(=O)c1cccc(NC(=O)Nc2cccc(C(=O)Nc3cc(C(=O)Nc4ccc(S(=O)(=O)O)c5cc(S(=O)(=O)O)cc(S(=O)(=O)O)c45)ccc3C)c2)c1	10.7 µM (inactive)	> 50 µM (inactive)	> 50 µM (inactive)	> 50 µM (inactive)	> 50 µM (inactive)	> 50 µM (inactive)	> 50 µM (inactive)	–	43 µM (inactive)	> 50 µM (inactive)	> 50 µM (inactive)	> 50 µM (inactive)	> 50 µM (inactive)	> 50 µM (inactive)	> 50 µM (inactive)	> 50 µM (inactive)	> 50 µM (inactive)	> 50 µM (inactive)	> 50 µM (inactive)	> 50 µM (inactive)
CC1(C2(C)OC(=O)c3ccccc32)OC(=O)c2ccccc21 (stereo not drawn)	> 100 µM (inactive)	–	> 100 µM (inactive)	> 100 µM (inactive)	> 100 µM (inactive)	> 100 µM (inactive)	> 100 µM (inactive)	–	> 100 µM (inactive)	83.8 µM (inactive)	> 100 µM (inactive)	> 100 µM (inactive)	> 100 µM (inactive)	> 100 µM (inactive)	–	> 100 µM (inactive)	> 100 µM (inactive)	> 100 µM (inactive)	> 100 µM (inactive)	> 100 µM (inactive)
CCOC(=O)CC[C@H](NC(=O)c1ccc(CNc2nc3cc(C(F)(F)F)ccc3nc2C(=O)OCC)cc1)C(=O)OCC	12.8 µM (inactive)	34.7 µM (inactive)	7.19 µM (inactive)	> 100 µM (inactive)	16.1 µM (inactive)	18.1 µM (inactive)	4.59 µM (inactive)	17.3 µM (inactive)	12.4 µM (inactive)	> 100 µM (inactive)	5.87 µM (inactive)	19 µM (inactive)	> 48.2 µM (inactive)	8.34 µM (inactive)	70.3 µM (inactive)	26.5 µM (inactive)	31.4 µM (inactive)	> 61.2 µM (inactive)	> 100 µM (inactive)	> 89.9 µM (inactive)
COc1cc(C2SCC(=O)N2NC(=O)c2ccc(NC(C)=O)cc2OC)ccc1O (stereo not drawn)	23.7 µM (inactive)	23.1 µM (inactive)	31.3 µM (inactive)	> 100 µM (inactive)	> 100 µM (inactive)	> 100 µM (inactive)	0.729 µM (active)	5.74 µM (inactive)	23.7 µM (inactive)	> 100 µM (inactive)	–	51.5 µM (inactive)	22.2 µM (inactive)	20.5 µM (inactive)	> 100 µM (inactive)	96.4 µM (inactive)	6.27 µM (inactive)	> 100 µM (inactive)	54.2 µM (inactive)	36.5 µM (inactive)
Cc1c(CCN2CCOCC2)c(N2CCOCC2)n2c(nc3ccccc32)c1C#N	> 10 µM (inactive)	> 10 µM (inactive)	8.95 µM (inactive)	> 10 µM (inactive)	> 10 µM (inactive)	> 10 µM (inactive)	> 10 µM (inactive)	> 10 µM (inactive)	> 10 µM (inactive)	> 10 µM (inactive)	> 10 µM (inactive)	> 10 µM (inactive)	–	> 10 µM (inactive)	> 10 µM (inactive)	> 10 µM (inactive)	> 10 µM (inactive)	> 10 µM (inactive)	> 10 µM (inactive)	> 10 µM (inactive)
Cc1[nH]c2ncn(Nc3ccccc3)c(=N)c2c1Cc1ccccc1	71.3 µM (inactive)	11.2 µM (inactive)	66.1 µM (inactive)	21.2 µM (inactive)	0.0254 µM (active)	3.34 µM (inactive)	> 100 µM (inactive)	5.89 µM (inactive)	> 100 µM (inactive)	35.6 µM (inactive)	19.7 µM (inactive)	5.45 µM (inactive)	0.142 µM (active)	–	0.0578 µM (active)	29.6 µM (inactive)	> 100 µM (inactive)	34.1 µM (inactive)	1.73 µM (inactive)	> 80.5 µM (inactive)
COC(=O)C1=C(O)C(C(=O)OC)[C@]2(O)[C@H](C(=O)OC)[C@H]1C[C@@H](c1ccc(OC)c(OC)c1)[C@H]2C(=O)OC (stereo partly drawn)	7.8 µM (inactive)	23.6 µM (inactive)	39.8 µM (inactive)	14 µM (inactive)	22.9 µM (inactive)	16.4 µM (inactive)	4.78 µM (inactive)	32.5 µM (inactive)	–	17.5 µM (inactive)	11.2 µM (inactive)	17.3 µM (inactive)	20 µM (inactive)	17.9 µM (inactive)	13.6 µM (inactive)	15.5 µM (inactive)	17.6 µM (inactive)	15.6 µM (inactive)	7.83 µM (inactive)	28.2 µM (inactive)
C=CCc1cc(C=C(C#N)C#N)cc(OC)c1O	55.5 µM (inactive)	> 100 µM (inactive)	> 100 µM (inactive)	42.7 µM (inactive)	94.2 µM (inactive)	90.4 µM (inactive)	> 100 µM (inactive)	> 100 µM (inactive)	–	40 µM (inactive)	76.2 µM (inactive)	53.1 µM (inactive)	> 100 µM (inactive)	> 100 µM (inactive)	62.2 µM (inactive)	> 100 µM (inactive)	> 100 µM (inactive)	81.7 µM (inactive)	28.2 µM (inactive)	–
C[N+](C)(CCNc1ccc(NCC[N+](C)(C)Cc2ccc([N+](=O)[O-])cc2)c2c1C(=O)c1ccccc1C2=O)Cc1ccc([N+](=O)[O-])cc1	> 100 µM (inactive)	> 100 µM (inactive)	> 100 µM (inactive)	> 100 µM (inactive)	> 100 µM (inactive)	> 100 µM (inactive)	> 100 µM (inactive)	> 100 µM (inactive)	> 100 µM (inactive)	> 100 µM (inactive)	> 100 µM (inactive)	> 100 µM (inactive)	> 100 µM (inactive)	> 100 µM (inactive)	70.3 µM (inactive)	> 100 µM (inactive)	> 100 µM (inactive)	> 100 µM (inactive)	> 100 µM (inactive)	> 100 µM (inactive)
Cn1ncc2c(Cl)ncnc21	> 100 µM (inactive)	> 100 µM (inactive)	> 100 µM (inactive)	> 100 µM (inactive)	> 100 µM (inactive)	> 100 µM (inactive)	> 100 µM (inactive)	> 100 µM (inactive)	> 100 µM (inactive)	> 100 µM (inactive)	> 100 µM (inactive)	> 100 µM (inactive)	> 100 µM (inactive)	> 100 µM (inactive)	> 100 µM (inactive)	> 100 µM (inactive)	> 100 µM (inactive)	> 100 µM (inactive)	> 100 µM (inactive)	> 100 µM (inactive)
O=C1N[C@H]2[C@H](O)[C@H](O)[C@@H](O)[C@H](O)[C@@H]2c2cc3c(c(O)c21)OCO3 [PANCRATISTATIN]	0.0301 µM (active)	0.144 µM (active)	1.58 µM (inactive)	0.106 µM (active)	0.0436 µM (active)	0.0493 µM (active)	0.037 µM (active)	–	0.0391 µM (active)	0.0309 µM (active)	0.0339 µM (active)	0.0369 µM (active)	0.0336 µM (active)	0.0469 µM (active)	0.0373 µM (active)	0.0622 µM (active)	0.0483 µM (active)	0.0386 µM (active)	0.0364 µM (active)	0.0365 µM (active)
